{
  "source": "patent US10793580B2",
  "about": "“Substituted pyrazoloazepin-8-ones and their use as phosphodiesterase inhibitors” (LEO Pharma A/S, priority 2016, dated 2020)",
  "biological_target": "human PDE4D catalytic domain (Homo sapiens (Human), UniProt Q08499)",
  "sequence (Q08499 380-740)": "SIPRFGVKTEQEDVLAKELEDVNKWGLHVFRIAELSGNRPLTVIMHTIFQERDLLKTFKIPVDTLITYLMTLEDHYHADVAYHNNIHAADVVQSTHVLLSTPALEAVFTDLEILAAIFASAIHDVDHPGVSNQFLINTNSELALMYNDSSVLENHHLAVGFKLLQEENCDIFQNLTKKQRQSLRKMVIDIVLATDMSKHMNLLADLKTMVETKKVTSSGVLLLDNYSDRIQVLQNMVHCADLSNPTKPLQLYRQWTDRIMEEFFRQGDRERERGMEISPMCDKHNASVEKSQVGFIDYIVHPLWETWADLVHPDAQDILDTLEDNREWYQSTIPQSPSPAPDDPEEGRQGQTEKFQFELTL",
  "assay": "PDE4 Assay (TR-FRET, FAM-cAMP cleavage)",
  "assay_type": "biochemical",
  "conditions": "read-out: PDE4 IC50 range",
  "method_in_brief": "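PDE4D catalytic domain (S380-L740) incubated briefly with unlabelled cAMP plus FAM-cAMP and titrated compound. Reaction stopped with binding buffer holding metal-ion nanoparticles that bind AMP phospho groups and Tb donor, and AMP formation read by TR-FRET. IC50 versus controls, reported as ranges (nM).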",
  "key": {"[1]": {"conditions": "human PDE4D catalytic domain (UniProt Q08499 [S380-L740]), 50% inhibition of substrate cleavage"}},
  "note": "pIC50: −log10 of the molar value. Read-outs that look alike come from different tables or passages of the source.",
  "data": [
    {"smiles": "CCn1nc(CCCOC(=O)c2cocn2)c2c1C(=O)NCC1(CCOCC1)C2", "note": "[Example 235, 3-(1-ethyl-8-oxo-spiro[6,7-dihydro-4H-pyrazolo[3,4-c]azepine-5,4′-tetrahydro-pyran]-3-yl)propyl oxazole-4-carboxylate]", "values": [
      {"measurement": "pIC50", "setting": "[1]", "result": "> 7.00"}
    ]},
    {"smiles": "CCn1nc(CCCOC(=O)c2ccc(Cl)cc2C(F)(F)F)c2c1C(=O)NCC1(CCOCC1)C2", "note": "[Example 84, 3-(1-ethyl-8-oxo-spiro[6,7-dihydro-4H-pyrazolo[3,4-c]azepine-5,4′-tetrahydropyran]-3-yl)propyl 4-chloro-2-(trifluoromethyl)benzoate]", "values": [
      {"measurement": "pIC50", "setting": "[1]", "result": "> 7.00"}
    ]},
    {"smiles": "CCn1nc(CCCOC(=O)C2CN(C(C)=O)C2)c2c1C(=O)NCC1(CCOCC1)C2", "note": "[Example 252, 3-(1-ethyl-8-oxo-spiro[6,7-dihydro-4H-pyrazolo[3,4-c]azepine-5,4′-tetrahydropyran]-3-yl)propyl 1-acetylazetidine-3-carboxylate]", "values": [
      {"measurement": "pIC50", "setting": "[1]", "result": "6.30 to 7.00"}
    ]},
    {"smiles": "CCn1nc(CC(C)(C)COC(=O)c2ccc(S(=O)(=O)N3CCN(C(C)=O)CC3)cc2)c2c1C(=O)NCC1(CCOCC1)C2", "note": "[Example 216, [3-(1-ethyl-8-oxo-spiro[6,7-dihydro-4H-pyrazolo[3,4-c]azepine-5,4′-tetrahydropyran]-3-yl)-2,2-dimethyl-propyl] 4-(4-acetylpiperazin-1-yl)sulfonylbenzoate]", "values": [
      {"measurement": "pIC50", "setting": "[1]", "result": "> 7.00"}
    ]},
    {"smiles": "CCn1nc(CC(C)(C)COC(=O)c2ccc(C(C)=O)cc2)c2c1C(=O)NCC1(CCOCC1)C2", "note": "[Example 200, [3-(1-ethyl-8-oxo-spiro[6,7-dihydro-4H-pyrazolo[3,4-c]azepine-5,4′-tetrahydropyran]-3-yl)-2,2-dimethyl-propyl] 4-acetylbenzoate]", "values": [
      {"measurement": "pIC50", "setting": "[1]", "result": "> 7.00"}
    ]},
    {"smiles": "CCn1nc(CCCOC(=O)c2ccc(C(F)(F)F)c(F)c2)c2c1C(=O)NCC1(CCOCC1)C2", "note": "[Example 75, 3-(1-ethyl-8-oxo-spiro[6,7-dihydro-4H-pyrazolo[3,4-c]azepine-5,4′-tetrahydro-pyran]-3-yl)propyl 3-fluoro-4-(trifluoromethyl)benzoate]", "values": [
      {"measurement": "pIC50", "setting": "[1]", "result": "> 7.00"}
    ]},
    {"smiles": "CCn1nc(CCCOC(=O)c2ccc(OC)c(C)c2)c2c1C(=O)NCC1(CCOCC1)C2", "note": "[Example 33, 3-(1-ethyl-8-oxo-spiro[6,7-dihydro-4H-pyrazolo[3,4-c]azepine-5,4′-tetrahydropyran]-3-yl)propyl 4-methoxy-3-methyl-benzoate]", "values": [
      {"measurement": "pIC50", "setting": "[1]", "result": "> 7.00"}
    ]},
    {"smiles": "CCn1nc(CCCOC(=O)c2cccc(C(=O)N3CCN(C(C)=O)CC3)c2)c2c1C(=O)NCC1(CCOCC1)C2", "note": "[Example 120, 3-(1-ethyl-8-oxo-spiro[6,7-dihydro-4H-pyrazolo[3,4-c]azepine-5,4′-tetrahydropyran]-3-yl)propyl 3-(4-acetylpiperazine-1-carbonyl)benzoate]", "values": [
      {"measurement": "pIC50", "setting": "[1]", "result": "> 7.00"}
    ]},
    {"smiles": "CCn1nc(CCCOC(=O)c2ccc(OC)cc2C(F)(F)F)c2c1C(=O)NCC1(CCOCC1)C2", "note": "[Example 81, 3-(1-ethyl-8-oxo-spiro[6,7-dihydro-4H-pyrazolo[3,4-c]azepine-5,4′-tetrahydro-pyran]-3-yl)propyl 4-methoxy-2-(trifluoromethyl)benzoate]", "values": [
      {"measurement": "pIC50", "setting": "[1]", "result": "> 7.00"}
    ]},
    {"smiles": "CCn1nc(CCCOC(=O)c2cc(OC)ccc2Cl)c2c1C(=O)NCC1(CCOCC1)C2", "note": "[Example 56, 3-(1-ethyl-8-oxo-spiro[6,7-dihydro-4H-pyrazolo[3,4-c]azepine-5,4′-tetrahydropyran]-3-yl)propyl 2-chloro-5-methoxy-benzoate]", "values": [
      {"measurement": "pIC50", "setting": "[1]", "result": "> 7.00"}
    ]},
    {"smiles": "CCn1nc(C[C@@H](C)COC(=O)c2ccc(S(=O)(=O)CC)cc2)c2c1C(=O)NCC1(CCOCC1)C2", "note": "[Example 157, [(2R)-3-(1-ethyl-8-oxo-spiro[6,7-dihydro-4H-pyrazolo[3,4-c]azepine-5,4′-tetrahydropyran]-3-yl)-2-methyl-propyl] 4-ethylsulfonylbenzoate]", "values": [
      {"measurement": "pIC50", "setting": "[1]", "result": "> 7.00"}
    ]},
    {"smiles": "CCn1nc(CCCOC(=O)c2ccc(C(=O)NC)cc2)c2c1C(=O)NCC1(CCOCC1)C2", "note": "[Example 105, 3-(1-ethyl-8-oxo-spiro[6,7-dihydro-4H-pyrazolo[3,4-c]azepine-5,4′-tetrahydro-pyran]-3-yl)propyl 4-(methylcarbamoyl)benzoate]", "values": [
      {"measurement": "pIC50", "setting": "[1]", "result": "> 7.00"}
    ]},
    {"smiles": "CCn1nc(CC(C)(C)COC(=O)C2CCN(C(C)=O)CC2)c2c1C(=O)NCC1(CCOCC1)C2", "note": "[Example 314, [3-(1-ethyl-8-oxo-spiro[6,7-dihydro-4H-pyrazolo[3,4-c]azepine-5,4′-tetrahydropyran]-3-yl)-2,2-dimethyl-propyl] 1-acetylpiperidine-4-carboxylate]", "values": [
      {"measurement": "pIC50", "setting": "Table 17, Examples 297-316", "result": "> 7.00"}
    ]},
    {"smiles": "CCn1nc(CCCOC(=O)c2ccc(S(=O)(=O)N3CCN(C(C)=O)CC3)cc2)c2c1C(=O)NCC1(CCOCC1)C2", "note": "[Example 102, 3-(1-ethyl-8-oxo-spiro[6,7-dihydro-4H-pyrazolo[3,4-c]azepine-5,4′-tetrahydropyran]-3-yl)propyl 4-(4-acetylpiperazin-1-yl)sulfonylbenzoate]", "values": [
      {"measurement": "pIC50", "setting": "[1]", "result": "> 7.00"}
    ]},
    {"smiles": "CCn1nc(CC(C)(C)COC(=O)c2ccc(S(=O)(=O)C3CCCC3)cc2)c2c1C(=O)NCC1(CCOCC1)C2", "note": "[Example 209, [3-(1-ethyl-8-oxo-spiro[6,7-dihydro-4H-pyrazolo[3,4-c]azepine-5,4′-tetrahydropyran]-3-yl)-2,2-dimethyl-propyl] 4-cyclopentylsulfonylbenzoate]", "values": [
      {"measurement": "pIC50", "setting": "[1]", "result": "> 7.00"}
    ]},
    {"smiles": "CCn1nc(CCCOC(=O)c2cscn2)c2c1C(=O)NCC1(CCOCC1)C2", "note": "[Example 244, 3-(1-ethyl-8-oxo-spiro[6,7-dihydro-4H-pyrazolo[3,4-c]azepine-5,4′-tetrahydropyran]-3-yl)propyl thiazole-4-carboxylate]", "values": [
      {"measurement": "pIC50", "setting": "[1]", "result": "> 7.00"}
    ]},
    {"smiles": "CCn1nc(CCCOC(=O)c2ccc(S(=O)(=O)CC)cc2)c2c1C(=O)NCC1(CCOCC1)C2", "note": "[Example 77, 3-(1-ethyl-8-oxo-spiro[6,7-dihydro-4H-pyrazolo[3,4-c]azepine-5,4′-tetrahydro-pyran]-3-yl)propyl 4-ethylsulfonylbenzoate]", "values": [
      {"measurement": "pIC50", "setting": "[1]", "result": "> 7.00"}
    ]},
    {"smiles": "CCn1nc(C[C@@H](C)COC(=O)c2ccccc2C)c2c1C(=O)NCC1(CCOCC1)C2", "note": "[Example 141, [(2R)-3-(1-ethyl-8-oxo-spiro[6,7-dihydro-4H-pyrazolo[3,4-c]azepine-5,4′-tetrahydropyran]-3-yl)-2-methyl-propyl] 2-methylbenzoate]", "values": [
      {"measurement": "pIC50", "setting": "[1]", "result": "> 7.00"}
    ]},
    {"smiles": "CCn1nc(CCCOC(=O)c2ccc(S(=O)(=O)C(C)C)cc2)c2c1C(=O)NCC1(CCOCC1)C2", "note": "[Example 93, 3-(1-ethyl-8-oxo-spiro[6,7-dihydro-4H-pyrazolo[3,4-c]azepine-5,4′-tetrahydropyran]-3-yl)propyl 4-isopropylsulfonylbenzoate]", "values": [
      {"measurement": "pIC50", "setting": "[1]", "result": "> 7.00"}
    ]},
    {"smiles": "CCn1nc(CC(C)(C)COC(=O)c2ccc(C(=O)N3CCN(C(C)=O)CC3)cc2)c2c1C(=O)NCC1(CCOCC1)C2", "note": "[Example 225, [3-(1-ethyl-8-oxo-spiro[6,7-dihydro-4H-pyrazolo[3,4-c]azepine-5,4'-tetrahydropyran]-3-yl)-2,2-dimethyl-propyl] 4-(4-acetylpiperazine-1-carbonyl)benzoate]", "values": [
      {"measurement": "pIC50", "setting": "[1]", "result": "> 7.00"}
    ]},
    {"smiles": "CCn1nc(CCCOC(=O)c2ccn(C)n2)c2c1C(=O)NCC1(CCOCC1)C2", "note": "[Example 237, 3-(1-ethyl-8-oxo-spiro[6,7-dihydro-4H-pyrazolo[3,4-c]azepine-5,4′-tetrahydropyran]-3-yl)propyl 1-methylpyrazole-3-carboxylate]", "values": [
      {"measurement": "pIC50", "setting": "[1]", "result": "> 7.00"}
    ]},
    {"smiles": "CCn1nc(CCCOC(=O)c2ccc(S(N)(=O)=O)cc2)c2c1C(=O)NCC1(CCOCC1)C2", "note": "[Example 65, 3-(1-ethyl-8-oxo-spiro[6,7-dihydro-4H-pyrazolo[3,4-c]azepine-5,4′-tetrahydropyran]-3-yl)propyl 4-sulfamoylbenzoate]", "values": [
      {"measurement": "pIC50", "setting": "[1]", "result": "> 7.00"}
    ]},
    {"smiles": "CCn1nc(CCCOC(=O)c2cc(F)ccc2C)c2c1C(=O)NCC1(CCOCC1)C2", "note": "[Example 20, 3-(1-ethyl-8-oxo-spiro[6,7-dihydro-4H-pyrazolo[3,4-c]azepine-5,4′-tetrahydropyran]-3-yl)propyl 5-fluoro-2-methyl-benzoate]", "values": [
      {"measurement": "pIC50", "setting": "[1]", "result": "> 7.00"}
    ]},
    {"smiles": "CCn1nc(C[C@@H](C)COC(=O)c2ccc(OC)cc2)c2c1C(=O)NCC1(CCOCC1)C2", "note": "[Example 149, [(2R)-3-(1-ethyl-8-oxo-spiro[6,7-dihydro-4H-pyrazolo[3,4-c]azepine-5,4′-tetrahydropyran]-3-yl)-2-methyl-propyl] 4-methoxybenzoate]", "values": [
      {"measurement": "pIC50", "setting": "[1]", "result": "> 7.00"}
    ]},
    {"smiles": "CCn1nc(CCCOC(=O)c2ccc(C)cc2Cl)c2c1C(=O)NCC1(CCOCC1)C2", "note": "[Example 42, 3-(1-ethyl-8-oxo-spiro[6,7-dihydro-4H-pyrazolo[3,4-c]azepine-5,4′-tetrahydropyran]-3-yl)propyl 2-chloro-4-methyl-benzoate]", "values": [
      {"measurement": "pIC50", "setting": "[1]", "result": "> 7.00"}
    ]},
    {"smiles": "CCn1nc(C[C@@H](C)COC(=O)c2ccc(S(=O)(=O)C(C)C)cc2)c2c1C(=O)NCC1(CCOCC1)C2", "note": "[Example 160, [(2R)-3-(1-ethyl-8-oxo-spiro[6,7-dihydro-4H-pyrazolo[3,4-c]azepine-5,4′-tetrahydropyran]-3-yl)-2-methyl-propyl] 4-isopropylsulfonylbenzoate]", "values": [
      {"measurement": "pIC50", "setting": "[1]", "result": "> 7.00"}
    ]},
    {"smiles": "CCn1nc(CCCOC(=O)c2cc(F)ccc2F)c2c1C(=O)NCC1(CCOCC1)C2", "note": "[Example 25, 3-(1-ethyl-8-oxo-spiro[6,7-dihydro-4H-pyrazolo[3,4-c]azepine-5,4′-tetrahydropyran]-3-yl)propyl 2,5-difluorobenzoate]", "values": [
      {"measurement": "pIC50", "setting": "[1]", "result": "> 7.00"}
    ]},
    {"smiles": "CCC(CC)C(=O)OCCCc1nn(CC)c2c1CC1(CCOCC1)CNC2=O", "note": "[Example 6, 3-(1-ethyl-8-oxo-spiro[6,7-dihydro-4H-pyrazolo[3,4-c]azepine-5,4′-tetrahydropyran]-3-yl)propyl 2-ethylbutanoate]", "values": [
      {"measurement": "pIC50", "setting": "[1]", "result": "> 7.00"}
    ]},
    {"smiles": "CCn1nc(CCCOC(=O)c2ccc(C(F)F)cc2)c2c1C(=O)NCC1(CCOCC1)C2", "note": "[Example 45, 3-(1-ethyl-8-oxo-spiro[6,7-dihydro-4H-pyrazolo[3,4-c]azepine-5,4′-tetrahydropyran]-3-yl)propyl 4-(difluoromethyl)benzoate]", "values": [
      {"measurement": "pIC50", "setting": "[1]", "result": "> 7.00"}
    ]},
    {"smiles": "CCn1nc(CCCCOC(=O)c2coc(C)n2)c2c1C(=O)NCC1(CCOCC1)C2", "note": "[Example 266, 4-(1-ethyl-8-oxo-spiro[6,7-dihydro-4H-pyrazolo[3,4-c]azepine-5,4′-tetrahydropyran]-3-yl)butyl 2-methyloxazole-4-carboxylate]", "values": [
      {"measurement": "pIC50", "setting": "[1]", "result": "> 7.00"}
    ]}
  ]
}
